Measured values as given in US20240254129A1, “HETEROCYCLIC COMPOUNDS AND USES THEREOF” (Kumquat Biosciences Inc., priority 2021, published 2024).
Read-outs that look alike come from different tables or passages of the source.

Key:
[1] = biological target: GST-tagged K-Ras mutant / His-tagged hSOS1 (Homo sapiens, UniProt P01116); assay: HTRF assay, K-Ras mutant / SOS1 interaction; format: binding; conditions: read-out: IC50 against mutant Kras
How it was run: (§1)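 Inhibition of wildtype or mutant K-Ras binding to hSOS1 is measured by FRET between antibody-bound Eu donor and XL665 acceptor. Protein levels are matched to the IC50 range under study. The 665/620 nm signal after ≥10 min yields IC50.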

[2] = biological target: T1, wildtype Kras / hSOS1 (Homo sapiens, UniProt P01116); assay: HTRF assay, wildtype Kras / SOS1 interaction; format: binding; conditions: read-out: IC50 against wildtype Kras
T1 construct: made in house; host or cells: E. coli BL21 (DE3)
T1 sequence (P01116 1-188 isoform P01116-2): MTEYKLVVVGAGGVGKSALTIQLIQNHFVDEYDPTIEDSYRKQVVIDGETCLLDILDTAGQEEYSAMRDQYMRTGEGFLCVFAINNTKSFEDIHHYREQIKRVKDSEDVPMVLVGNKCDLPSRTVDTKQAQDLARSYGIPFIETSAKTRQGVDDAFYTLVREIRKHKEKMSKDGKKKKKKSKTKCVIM
How it was run: as §1

[3] = compound nos. 102-196, general methodology of example 5
[4] = compound nos. 201-213, general methodology of example 5

Sequence of GST-tagged K-Ras mutant / His-tagged hSOS1 (P01116 whole entry G12D, form open): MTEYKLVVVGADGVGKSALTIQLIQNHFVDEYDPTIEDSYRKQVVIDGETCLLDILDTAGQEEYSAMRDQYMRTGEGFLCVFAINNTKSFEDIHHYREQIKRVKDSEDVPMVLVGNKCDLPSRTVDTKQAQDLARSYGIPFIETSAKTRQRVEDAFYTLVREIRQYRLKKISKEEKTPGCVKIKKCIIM

IC50 [1, 4] [nM] | IC50 [2, 4] [nM] | SMILES | other results
< 1500 | < 1500 | Oc1cc(-c2c(Cl)cc3c(N4C[C@H]5CC[C@@H](C4)N5)nc(OC[C@@]45CCCN4C[C@H](F)C5)nc3c2F)c2ccccc2c1 [Compound 202, 4-(4-((1R,5S)-3,8-diazabicyclo[3.2.1]octan-3-yl)-6-chloro-8-fluoro-2-(((2R,7aS)-2-fluorotetrahydro-1H-pyrrolizin-7a(5H)-yl)methoxy)quinazolin-7-yl)naphthalen-2-ol] | –
< 1500 | < 1500 | Nc1nc2c(-c3c(Cl)cc4c(N5CC6CCC(C5)N6)nc(OC[C@@]56CCCN5C[C@H](F)C6)nc4c3F)cccc2o1 [Compound 204, 4-(4-((1R,5S)-3,8-diaza-bicyclo[3.2.1]octan-3-yl)-6-chloro-8-fluoro-2-(((2R,7aS)-2-fluorotetra-hydro-1H-pyrrolizin-7a(5H)-yl)methoxy)quin-azolin-7-yl)benzo[d]-oxazol-2-amine] | –
< 1500 | < 1500 | CN1[C@@H]2CC[C@H]1CN(c1nc(OC[C@@]34CCCN3C[C@H](F)C4)nc3c(F)c(-c4ccc(F)c5sc(N)nc45)c(Cl)cc13)C2 [Compound 205, 4-(6-chloro-8-fluoro-2-(((2R,7aS)-2-fluorotetra-hydro-1H-pyrrolizin-7a(5H)-yl)methoxy)-4-((1R,5S)-8-methyl-3,8-diazabicyclo[3.2.1]octan-3-yl)quinazolin-7-yl)-7-fluorobenzo[d]thiazol-2-amine] | –
< 1500 | < 1500 | Nc1nc2c(-c3c(Cl)cc4c(N5C[C@H]6CC[C@@H](C5)N6)nc(OCC5(CN6CCCC6)CC5)nc4c3F)ccc(F)c2s1 [Compound 211, 4-(4-((1R,5S)-3,8-diaza-bicyclo[3.2.1]octan-3-yl)-6-chloro-8-fluoro-2-((1-(pyrrolidin-1-ylmethyl)-cyclopropyl)methoxy)quin-azolin-7-yl)-7-fluorobenzo-[d]thiazol-2-amine] | –

Continued, molecule first:

SMILES | IC50 [1, 4] [nM] | IC50 [2, 4] [nM] | other results
N#CCC1CNCCN(c2nc(OCC34CCCN3CCC4)nc3c(F)c(-c4ccc(F)c5sc(N)nc45)c(Cl)cc23)C1 (stereo not drawn) [Compound 187, 2-(1-(7-(2-amino-7-fluoro-benzo[d]thiazol-4-yl)-6-chloro-8-fluoro-2-((tetra-hydro-1H-pyrrolizin-7a(5H)-yl)methoxy)quin-azolin-4-yl)-1,4-diazepan-6-yl)acetonitrile] | – | – | IC50 [1, 3]: < 500 nM; IC50 [2, 3]: < 500 nM
Cc1cc(N)nc(-c2c(Cl)cc3c(N4CCNCC(F)(F)C4)nc(OC[C@@H]4CCCN4C)nc3c2F)c1 [Compound 189, (S)-6-(6-chloro-4-(6,6-difluoro-1,4-diazepan-1-yl)-8-fluoro-2-((1-methyl-pyrrolidin-2-yl)methoxy)-quinazolin-7-yl)-4-methyl-pyridin-2-amine] | – | – | IC50 [1, 3]: > 500 nM; IC50 [2, 3]: > 500 nM
Nc1nc2c(-c3c(Cl)cc4c(N5CCCCC(F)C5)nc(OC[C@@]56CCCN5C[C@H](F)C6)nc4c3F)ccc(F)c2s1 (stereo partly drawn) [Compound 190, 4-(6-chloro-8-fluoro-4-(3-fluoroazepan-1-yl)-2-(((2R,7aS)-2-fluorotetra-hydro-1H-pyrrolizin-7a(5H)-yl)methoxy)quin-azolin-7-yl)-7-fluorobenzo-[d]thiazol-2-amine] | – | – | IC50 [1, 3]: < 500 nM; IC50 [2, 3]: < 500 nM
Cc1ccnc(C(C)C)c1-n1c(=O)nc(N2CCNCC(F)(F)C2)c2cc(F)c(-c3c(O)cccc3F)nc21 [Compound 195, 4-(6,6-difluoro-1,4-diazepan-1-yl)-6-fluoro-7-(2-fluoro-6-hydroxyphenyl)-1-(2-isopropyl-4-methylpyridin-3-yl)pyrido[2,3-d]pyrimidin-2(1H)-one] | – | – | IC50 [1, 3]: > 500 nM; IC50 [2, 3]: > 500 nM
Cc1ccnc(C(C)C)c1-n1c(=O)nc(N2CCNCC(F)(F)C2)c2cc(F)c(-c3cc(O)cc4ccccc34)nc21 [Compound 196, 4-(6,6-difluoro-1,4-diazepan-1-yl)-6-fluoro-7-(3-hydroxynaphthalen-1-yl)-1-(2-isopropyl-4-methyl-pyridin-3-yl)pyrido[2,3-d]-pyrimidin-2(1H)-one] | – | – | IC50 [1, 3]: > 500 nM; IC50 [2, 3]: > 500 nM
Nc1nc2c(-c3c(Cl)cc4c(N5CC6CNC(C6)C5)nc(OC[C@@]56CCCN5C[C@H](F)C6)nc4c3F)ccc(F)c2s1 (stereo partly drawn) [Compound 201, 4-(4-(3,6-diazabicyclo[3.2.1]octan-3-yl)-6-chloro-8-fluoro-2-(((2R,7aS)-2-fluorotetrahydro-1H-pyrrolizin-7a(5H)-yl)methoxy)quinazolin-7-yl)-7-fluorobenzo[d]thiazol-2-amine] | < 1500 | < 1500 | –
Nc1nc2c(-c3c(Cl)cc4c(N5CC6CCC(C5)O6)nc(OC[C@@]56CCCN5C[C@H](F)C6)nc4c3F)ccc(F)c2s1 [Compound 203, 4-(4-(8-oxa-3-azabicyclo[3.2.1]octan-3-yl)-6-chloro-8-fluoro-2-(((2R,7aS)-2-fluorohexahydro-1H-pyrrolizin-7a-yl)methoxy)quinazolin-7-yl)-7-fluorobenzo[d]thiazol-2-amine] | < 1500 | < 1500 | –
Nc1nc2c(-c3c(Cl)cc4c(N5C[C@H]6CC[C@@H](C5)N6)nc(OC[C@@]56CCCN5C[C@H](F)C6)nc4c3F)ccc(F)c2s1 [Compound 206, 4-(4-((1R,5S)-3,8-diaza-bicyclo[3.2.1]octan-3-yl)-6-chloro-8-fluoro-2-(((2R,7aS)-2-fluorotetra-hydro-1H-pyrrolizin-7a(5H)-yl)methoxy)quinazolin-7-yl)-7-fluorobenzo[d]thiazol-2-amine] | < 1500 | < 1500 | –
Nc1nc2c(-c3ccc4c(N5CC6CCC(C5)N6)nc(OC[C@@]56CCCN5C[C@H](F)C6)nc4c3F)ccc(F)c2s1 [Compound 207, 4-(4-((1R,5S)-3,8-diaza-bicyclo[3.2.1]octan-3-yl)-8-fluoro-2-(((2R,7aS)-2-fluoro-tetrahydro-1H-pyrrolizin-7a(5H)-yl)methoxy)quin-azolin-7-yl)-7-fluorobenzo-[d]thiazol-2-amine] | < 1500 | < 1500 | –
Nc1nc2c(-c3c(Cl)cc4c(N5C[C@H]6CC[C@@H](C5)N6)nc(OCCCN5CCCC5)nc4c3F)ccc(F)c2s1 [Compound 208, 4-(4-((1R,5S)-3,8-diaza-bicyclo[3.2.1]octan-3-yl)-6-chloro-8-fluoro-2-(3-(pyrrolidin-1-yl)propoxy)-quinazolin-7-yl)-7-fluoro-benzo[d]thiazol-2-amine] | < 1500 | < 1500 | –
Oc1cc(-c2ccc3c(N4CC5CCC(C4)N5)nc(OC[C@@]45CCCN4C[C@H](F)C5)nc3c2F)c2ccccc2c1 [Compound 209, 4-(4-((1R,5S)-3,8-diaza-bicyclo[3.2.1]octan-3-yl)-8-fluoro-2-(((2R,7aS)-2-fluoro-tetrahydro-1H-pyrrolizin-7a(5H)-yl)methoxy)quin-azolin-7-yl)naphthalen-2-ol] | < 1500 | < 1500 | –
CN(C)CC1(COc2nc(N3C[C@H]4CC[C@@H](C3)N4)c3cc(Cl)c(-c4ccc(F)c5sc(N)nc45)c(F)c3n2)CC1 [Compound 210] | < 1500 | < 1500 | –
Nc1nc2c(-c3c(Cl)cc4c(N5C[C@H]6CC[C@@H](C5)N6)nc(OCC5(CN6CCCC6)CC5)nc4c3F)cccc2o1 [Compound 212, 4-(4-((1R,5S)-3,8-diaza-bicyclo[3.2.1]octan-3-yl)-6-chloro-8-fluoro-2-((1-(pyrrolidin-1-ylmethyl)-cyclopropyl)methoxy)quin-azolin-7-yl)benzo[d]oxazol-2-amine] | < 1500 | < 1500 | –
Nc1nc2c(-c3c(Cl)cc4c(N5CC6CCC(C5)NC6)nc(OC[C@@]56CCCN5C[C@H](F)C6)nc4c3F)ccc(F)c2s1 (stereo partly drawn) [Compound 213, 4-(4-(3,6-diazabicyclo-[3.2.2]nonan-3-yl)-6-chloro-8-fluoro-2-(((2R,7aS)-2-fluorotetrahydro-1H-pyrrolizin-7a(5H)-yl)meth-oxy)quinazolin-7-yl)-7-fluorobenzo[d]thiazol-2-amine] | < 1500 | < 1500 | –
Nc1nc2c(-c3c(Cl)cc4c(N5[C@@H]6CC[C@H]5CNC6)nc(OC[C@@]56CCCN5C[C@H](F)C6)nc4c3F)ccc(F)c2s1 [Compound 301, 4-(4-((1R,5S)-3,8-diaza-bicyclo[3.2.1]octan-8-yl)-6-chloro-8-fluoro-2-(((2R,7aS)-2-fluorotetra-hydro-1H-pyrrolizin-7a(5H)-yl)methoxy)quinazolin-7-yl)-7-fluorobenzo[d]thiazol-2-amine] | – | – | IC50 ([1]; compound nos. 301-306): < 1500 nM; IC50 ([2]; compound nos. 301-306): < 1500 nM
Nc1nc2c(-c3c(Cl)cc4c(N5C6CCCC5CNC6)nc(OC[C@@]56CCCN5C[C@H](F)C6)nc4c3F)ccc(F)c2s1 [Compound 302, 4-(4-(3,9-diazabicyclo-[3.3.1]nonan-9-yl)-6-chloro-8-fluoro-2-(((2R,7aS)-2-fluorotetrahydro-1H-pyrrolizin-7a(5H)-yl)meth-oxy)quinazolin-7-yl)-7-fluorobenzo[d]thiazol-2-amine] | – | – | IC50 ([1]; compound nos. 301-306): < 1500 nM; IC50 ([2]; compound nos. 301-306): < 1500 nM
Nc1nc2c(-c3c(Cl)cc4c(N5[C@@H]6CC[C@H]5CC(F)(F)C6)nc(OC[C@@]56CCCN5C[C@H](F)C6)nc4c3F)ccc(F)c2s1 [Compound 303, 4-(6-chloro-4-((1R,5S)-3,3-difluoro-8-azabicyclo[3.2.1]-octan-8-yl)-8-fluoro-2-(((2R,7aS)-2-fluorotetra-hydro-1H-pyrrolizin-7a(5H)-yl)methoxy)quinazolin-7-yl)-7-fluorobenzo[d]thiazol-2-amine] | – | – | IC50 ([1]; compound nos. 301-306): > 1500 nM; IC50 ([2]; compound nos. 301-306): < 1500 nM
